Results: patent US20010021710A1, “NOVEL CIS-3,4-CHROMAN DERIVATIVES USEFUL IN THE PREVENTION OR TREATMENT OF ESTROGEN RELATED DISEASES OR SYNDROMES” (priority 1996, published 2001)

For `Oc1cccc([C@@H]2COc3cc(O)ccc3[C@@H]2c2ccc(OCCN3CCCCC3)cc2)c1` (racemic) [Example 19, (±)-cis-7-Hydroxy-3-(3-hydroxyphenyl)-4-(4-(2-piperidinoethoxy)phenyl)chromane], the melting point was 144 °C (dec.). Compound `Oc1ccc2c(c1)OC[C@@H](c1cccc(F)c1)[C@H]2c1ccc(OCCN2CCCC2)cc1` (racemic) [Example 17, (±)-cis-3-(3-Fluorophenyl)-7-hydroxy-4-(4-(2-pyrrolidinoethoxy)phenyl)chromane] has a melting point of 146 to 150 °C. `Oc1ccc([C@@H]2COc3cc(O)ccc3[C@@H]2c2ccc(OCCN3CCCC3)cc2)cc1` (racemic) [Example 10, (±)-cis-7-Hydroxy-3-(4-hydroxyphenyl)-4-(4-(2-pyrrolidinoethoxy)phenyl)chromane] showed a melting point of 112 to 116 °C. For `Oc1ccc2c(c1)OC[C@@H](c1c(F)c(F)c(F)c(F)c1F)[C@H]2c1ccc(OCCN2CCCCC2)cc1` (racemic) [Example 25, (±)-cis-7-Hydroxy-3-(2,3,4,5,6-pentafluorophenyl)-4-(4-(2-piperidinoethoxy)phenyl)chromane], the melting point was 174 °C (dec.). In the case of `Oc1ccc2c(c1)OC[C@@H](c1c(F)c(F)c(F)c(F)c1F)[C@H]2c1ccc(OCCN2CCCC2)cc1` (racemic) [Example 24, (±)-cis-7-Hydroxy-3-(2,3,4,5,6-pentafluorophenyl)-4-(4-(2-pyrrolidinoethoxy)phenyl)chromane], the melting point is reported as 125 °C (dec.). Work on `Oc1ccc2c(c1)OC[C@@H](c1ccc(F)cc1)[C@H]2c1ccc(OCCN2CCCCC2)cc1` (racemic) [Example 8, (±)-cis-7-Hydroxy-3-(4-fluorophenyl)-4-(4-(2-piperidinoethoxy)phenyl)-chromane] yielded a melting point of 146 to 147 °C. In the case of `Oc1ccc2c(c1)OC[C@@H](c1ccc(F)cc1)[C@H]2c1ccc(OCCN2CCCC2)cc1` (racemic) [Example 7, (±)-cis-7-Hydroxy-3-(4-fluorophenyl)-4-(4-(2-pyrrolidinoethoxy)phenyl)chromane], the melting point is reported as 164 to 167 °C. For `Oc1ccc2c(c1)OC[C@@H](c1cccc(C(F)(F)F)c1)[C@H]2c1ccc(OCCN2CCCCC2)cc1` (racemic) [Example 22, (±)-cis-7-Hydroxy-4-(4-(2-piperidinoethoxy)phenyl)-3-(3-(trifluoromethyl)phenyl)-chromane], the melting point was 118 to 119 °C. For `Cc1ccc([C@@H]2COc3cc(O)ccc3[C@@H]2c2ccc(OCCN3CCCC3)cc2)cc1` (racemic) [Example 12, (±)-cis-7-Hydroxy-3-(4-methylphenyl)-4-(4-(2-pyrrolidinoethoxy)phenyl)chromane], the melting point was 161 to 165 °C. For `Oc1ccc2c(c1)OC[C@@H](c1ccc(F)cc1)[C@H]2c1ccc(OCCCN2CCCCC2)cc1` (racemic) [Example 9, (±)-cis-7-Hydroxy-3-(4-fluorophenyl)-4-(4-(3-piperidinopropoxy)phenyl)chromane], the melting point was 78 to 84 °C. Work on `Cc1cccc([C@@H]2COc3cc(O)ccc3[C@@H]2c2ccc(OCCN3CCCC3)cc2)c1` (racemic) [Example 16, (±)-cis-7-Hydroxy-3-(3-methylphenyl)-4-(4-(2-pyrrolidinoethoxy)phenyl)chromane] yielded a melting point of 85 to 90 °C. For `Oc1ccc2c(c1)OC[C@@H](c1ccccc1F)[C@H]2c1ccc(OCCN2CCCC2)cc1` (racemic) [Example 23, (±)-cis-3-(2-Fluorophenyl)-7-hydroxy-4-(4-(2-pyrrolidinoethoxy)phenyl)chromane], the melting point was 190 °C (dec.). For `Oc1ccc2c(c1)OC[C@@H](c1cccc(C(F)(F)F)c1)[C@H]2c1ccc(OCCN2CCCC2)cc1` (racemic) [Example 21, (±)-cis-7-Hydroxy-4-(4-(2-pyrrolidinoethoxy)phenyl)-3-(3-(trifluoromethyl)phenyl)-chromane], the melting point was 87 to 89 °C. In the case of `Oc1ccc2c(c1)OC[C@@H](c1ccc(C(F)(F)F)cc1)[C@H]2c1ccc(OCCN2CCCC2)cc1` [Example 1, (+)-cis-7-Hydroxy-4-(4-(2-pyrrolidinoethoxy)phenyl)-3-(4-(trifluoromethyl)phenyl)-chromane], the melting point is reported as 100 °C (dec.). `Cc1ccc([C@@H]2COc3cc(O)ccc3[C@@H]2c2ccc(OCCN3CCCCC3)cc2)cc1` (racemic) [Example 13, (±)-cis-7-Hydroxy-3-(4-methylphenyl)-4-(4-(2-piperidinoethoxy)phenyl)chromane] showed a melting point of 146 to 147.5 °C.
